Source: patent publication US20250295646A1, “METHODS OF USE OF T-TYPE CALCIUM CHANNEL MODULATORS” (Praxis Precision Medicines, Inc., priority 2022, published 2025)

System: adult patients with essential tremor
Assay: Example 16: video-reviewed TETRAS performance subscale and upper limb score; as to TETRAS Performance Subscale Total Score by Video Review, Change from Baseline, Mean (SD): test concentration or dose not given here; as to TETRAS Performance Subscale Total Score by Video Review, Change from Baseline, Median: test concentration or dose not given here; as to TETRAS Performance Subscale Total Score by Video Review, Mean (SD): test concentration or dose not given here; as to TETRAS Performance Subscale Total Score by Video Review, Median: test concentration or dose not given here
Format: in vivo, human
Excerpt: Video-reviewed TETRAS Analyses Video reviewed TETRAS assessments were generally consistent with those conducted at the clinic. Video reviewed TETRAS performance subscale total scores are summarized for Part A, the open-label titration phase of Part B, and the randomized withdrawal phase of Part B in Table 42, Table 43, and Table 44.
Video reviewed upper limb score values were generally consistent with those conducted at the clinic and are summarized for Part A, the open-label titration phase of Part B, and the randomized withdrawal phase of Part B in Table 45, Table 46, and Table 47, respectively.

[1] = Day 21, Part B Open-Label Titration Phase (N = 17)
[2] = Day 21, Part B, Formula (I) arm (N = 6)
[3] = Day 42 6 hours Post - dose (Randomization Baseline), Part B, Formula (I) arm (N = 6)
[4] = Day 42, 6 hours Post - dose, Part B Open-Label Titration Phase (N = 17)
[5] = Day 42, 6 hours Post - dose, Part B, Formula (I) arm (N = 6)
[6] = Day 42, Pre - dose, Part B Open-Label Titration Phase (N = 17)
[7] = Day 42, Pre - dose, Part B, Formula (I) arm (N = 6)
[8] = Day 56, Part B, Formula (I) arm (N = 6)
[9] = Day 70, Part B, Formula (I) arm (N = 6)

CC(C)(C)NC(=O)CN1CCC(CNC(=O)c2cc(F)cc(Cl)c2)CC1 [compound of formula (I), N-((1-(2-(tert-butylamino)-2-oxoethyl)piperidin-4-yl)methyl)-3-chloro-5-fluorobenzamide]
TETRAS Upper Limb Score by Video Review, Mean (SD) [1]: 9.63 (2.478) | TETRAS Upper Limb Score by Video Review, Median [1]: 10.00 | TETRAS Upper Limb Score by Video Review, Percentage Change from Baseline in Tremor Amplitude, Mean (SD) [1]: −9.74 (24.458) % | TETRAS Upper Limb Score by Video Review, Percentage Change from Baseline in Tremor Amplitude, Median [1]: −9.15% | TETRAS Performance Subscale Total Score by Video Review, Change from Baseline, Mean (SD) [2]: 0.08 (2.396) | TETRAS Performance Subscale Total Score by Video Review, Change from Baseline, Median [2]: 0.50 | TETRAS Performance Subscale Total Score by Video Review, Mean (SD) [2]: 22.42 (3.277) | TETRAS Performance Subscale Total Score by Video Review, Median [2]: 22.00 | TETRAS Performance Subscale Total Score by Video Review, Percentage Change from Baseline in Tremor Amplitude, Mean (SD) [2]: 0.67 (15.665) % | TETRAS Performance Subscale Total Score by Video Review, Percentage Change from Baseline in Tremor Amplitude, Median [2]: 3.53% | TETRAS Upper Limb Score by Video Review, Change from Baseline, Mean (SD) [2]: 0.17 (1.211) | TETRAS Upper Limb Score by Video Review, Change from Baseline, Median [2]: 0.00 | TETRAS Upper Limb Score by Video Review, Mean (SD) [2]: 10.08 (0.861) | TETRAS Upper Limb Score by Video Review, Median [2]: 10.00 | TETRAS Upper Limb Score by Video Review, Percentage Change from Baseline in Tremor Amplitude, Mean (SD) [2]: 2.64 (20.424) % | TETRAS Upper Limb Score by Video Review, Percentage Change from Baseline in Tremor Amplitude, Median [2]: 0.00% | TETRAS Performance Subscale Total Score by Video Review, Mean (SD) [3]: 19.92 (5.229) | TETRAS Performance Subscale Total Score by Video Review, Median [3]: 20.25 | TETRAS Upper Limb Score by Video Review, Mean (SD) [3]: 8.42 (2.417) | TETRAS Upper Limb Score by Video Review, Median [3]: 9.25 | TETRAS Performance Subscale Total Score by Video Review, Change from Baseline, Mean (SD) [4]: −3.18 (3.133) | TETRAS Performance Subscale Total Score by Video Review, Change from Baseline, Median [4]: −3.50 | TETRAS Performance Subscale Total Score by Video Review, Mean (SD) [4]: 20.32 (7.564) | TETRAS Performance Subscale Total Score by Video Review, Median [4]: 20.00 | TETRAS Performance Subscale Total Score by Video Review, Percentage Change from Baseline in Tremor Amplitude, Mean (SD) [4]: −18.90 (18.026) % | TETRAS Performance Subscale Total Score by Video Review, Percentage Change from Baseline in Tremor Amplitude, Median [4]: −22.26% | TETRAS Upper Limb Score by Video Review, Change from Baseline, Mean (SD) [4]: −1.77 (1.633) | TETRAS Upper Limb Score by Video Review, Change from Baseline, Median [4]: −1.50 | TETRAS Upper Limb Score by Video Review, Mean (SD) [4]: 8.95 (2.902) | TETRAS Upper Limb Score by Video Review, Median [4]: 9.00 | TETRAS Upper Limb Score by Video Review, Percentage Change from Baseline in Tremor Amplitude, Mean (SD) [4]: −26.26 (22.691) % | TETRAS Upper Limb Score by Video Review, Percentage Change from Baseline in Tremor Amplitude, Median [4]: −25.01% | TETRAS Performance Subscale Total Score by Video Review, Change from Baseline, Mean (SD) [5]: −2.42 (3.484) | TETRAS Performance Subscale Total Score by Video Review, Change from Baseline, Median [5]: −3.00 | TETRAS Performance Subscale Total Score by Video Review, Percentage Change from Baseline in Tremor Amplitude, Mean (SD) [5]: −14.27 (20.962) % | TETRAS Performance Subscale Total Score by Video Review, Percentage Change from Baseline in Tremor Amplitude, Median [5]: −19.21% | TETRAS Upper Limb Score by Video Review, Change from Baseline, Mean (SD) [5]: −1.50 (2.025) | TETRAS Upper Limb Score by Video Review, Change from Baseline, Median [5]: −1.25 | TETRAS Upper Limb Score by Video Review, Percentage Change from Baseline in Tremor Amplitude, Mean (SD) [5]: −21.52 (28.723) % | TETRAS Upper Limb Score by Video Review, Percentage Change from Baseline in Tremor Amplitude, Median [5]: −21.24% | TETRAS Performance Subscale Total Score by Video Review, Change from Baseline, Mean (SD) [6]: −2.32 (2.272) | TETRAS Performance Subscale Total Score by Video Review, Change from Baseline, Median [6]: −2.50 | TETRAS Performance Subscale Total Score by Video Review, Mean (SD) [6]: 21.18 (7.916) | TETRAS Performance Subscale Total Score by Video Review, Median [6]: 19.50 | TETRAS Performance Subscale Total Score by Video Review, Percentage Change from Baseline in Tremor Amplitude, Mean (SD) [6]: −14.41 (13.541) % | TETRAS Performance Subscale Total Score by Video Review, Percentage Change from Baseline in Tremor Amplitude, Median [6]: −16.46% | TETRAS Upper Limb Score by Video Review, Change from Baseline, Mean (SD) [6]: −1.41 (1.429) | TETRAS Upper Limb Score by Video Review, Change from Baseline, Median [6]: −1.00 | TETRAS Upper Limb Score by Video Review, Mean (SD) [6]: 9.32 (2.943) | TETRAS Upper Limb Score by Video Review, Median [6]: 9.50 | TETRAS Upper Limb Score by Video Review, Percentage Change from Baseline in Tremor Amplitude, Mean (SD) [6]: −21.20 (19.707) % | TETRAS Upper Limb Score by Video Review, Percentage Change from Baseline in Tremor Amplitude, Median [6]: −17.46% | TETRAS Performance Subscale Total Score by Video Review, Change from Baseline, Mean (SD) [7]: −1.33 (2.338) | TETRAS Performance Subscale Total Score by Video Review, Change from Baseline, Median [7]: −1.00 | TETRAS Performance Subscale Total Score by Video Review, Mean (SD) [7]: 21.00 (5.263) | TETRAS Performance Subscale Total Score by Video Review, Median [7]: 22.25 | TETRAS Performance Subscale Total Score by Video Review, Percentage Change from Baseline in Tremor Amplitude, Mean (SD) [7]: −8.23 (14.278) % | TETRAS Performance Subscale Total Score by Video Review, Percentage Change from Baseline in Tremor Amplitude, Median [7]: −6.88% | TETRAS Upper Limb Score by Video Review, Change from Baseline, Mean (SD) [7]: −0.75 (0.935) | TETRAS Upper Limb Score by Video Review, Change from Baseline, Median [7]: −0.50 | TETRAS Upper Limb Score by Video Review, Mean (SD) [7]: 9.17 (1.862) | TETRAS Upper Limb Score by Video Review, Median [7]: 9.25 | TETRAS Upper Limb Score by Video Review, Percentage Change from Baseline in Tremor Amplitude, Mean (SD) [7]: −12.31 (14.247) % | TETRAS Upper Limb Score by Video Review, Percentage Change from Baseline in Tremor Amplitude, Median [7]: −9.15% | TETRAS Performance Subscale Total Score by Video Review, Change from Baseline, Mean (SD) [8]: −1.33 (4.771) | TETRAS Performance Subscale Total Score by Video Review, Change from Baseline, Median [8]: −0.50 | TETRAS Performance Subscale Total Score by Video Review, Change from Randomization, Mean (SD) [8]: 1.08 (2.311) | TETRAS Performance Subscale Total Score by Video Review, Change from Randomization, Median [8]: 0.75 | TETRAS Performance Subscale Total Score by Video Review, Mean (SD) [8]: 21.00 (6.542) | TETRAS Performance Subscale Total Score by Video Review, Median [8]: 21.75 | TETRAS Performance Subscale Total Score by Video Review, Percentage Change from Baseline in Tremor Amplitude, Mean (SD) [8]: −6.83 (27.753) % | TETRAS Performance Subscale Total Score by Video Review, Percentage Change from Baseline in Tremor Amplitude, Median [8]: −3.23% | TETRAS Performance Subscale Total Score by Video Review, Percentage Change from Randomization in Tremor Amplitude, Mean (SD) [8]: 6.68 (14.469) % | TETRAS Performance Subscale Total Score by Video Review, Percentage Change from Randomization in Tremor Amplitude, Median [8]: 5.12% | TETRAS Upper Limb Score by Video Review, Change from Baseline, Mean (SD) [8]: −0.75 (2.115) | TETRAS Upper Limb Score by Video Review, Change from Baseline, Median [8]: −0.25 | TETRAS Upper Limb Score by Video Review, Change from Randomization, Mean (SD) [8]: 0.75 (0.612) | TETRAS Upper Limb Score by Video Review, Change from Randomization, Median [8]: 0.50 | TETRAS Upper Limb Score by Video Review, Mean (SD) [8]: 9.17 (2.658) | TETRAS Upper Limb Score by Video Review, Median [8]: 10.00 | TETRAS Upper Limb Score by Video Review, Percentage Change from Baseline in Tremor Amplitude, Mean (SD) [8]: −10.13 (31.224) % | TETRAS Upper Limb Score by Video Review, Percentage Change from Baseline in Tremor Amplitude, Median [8]: −4.57% | TETRAS Upper Limb Score by Video Review, Percentage Change from Randomization in Tremor Amplitude, Mean (SD) [8]: 12.91 (10.020) % | TETRAS Upper Limb Score by Video Review, Percentage Change from Randomization in Tremor Amplitude, Median [8]: 9.15% | TETRAS Performance Subscale Total Score by Video Review, Change from Baseline, Mean (SD) [9]: 0.60 (2.104) | TETRAS Performance Subscale Total Score by Video Review, Change from Baseline, Median [9]: 0.50 | TETRAS Performance Subscale Total Score by Video Review, Change from Randomization, Mean (SD) [9]: 3.60 (3.343) | TETRAS Performance Subscale Total Score by Video Review, Change from Randomization, Median [9]: 4.50 | TETRAS Performance Subscale Total Score by Video Review, Mean (SD) [9]: 22.00 (4.962) | TETRAS Performance Subscale Total Score by Video Review, Median [9]: 22.50 | TETRAS Performance Subscale Total Score by Video Review, Percentage Change from Baseline in Tremor Amplitude, Mean (SD) [9]: 3.98 (13.794) % | TETRAS Performance Subscale Total Score by Video Review, Percentage Change from Baseline in Tremor Amplitude, Median [9]: 3.53% | TETRAS Performance Subscale Total Score by Video Review, Percentage Change from Randomization in Tremor Amplitude, Mean (SD) [9]: 21.30 (20.204) % | TETRAS Performance Subscale Total Score by Video Review, Percentage Change from Randomization in Tremor Amplitude, Median [9]: 27.66% | TETRAS Upper Limb Score by Video Review, Change from Baseline, Mean (SD) [9]: 0.30 (0.908) | TETRAS Upper Limb Score by Video Review, Change from Baseline, Median [9]: 0.50 | TETRAS Upper Limb Score by Video Review, Change from Randomization, Mean (SD) [9]: 1.80 (2.139) | TETRAS Upper Limb Score by Video Review, Change from Randomization, Median [9]: 2.50 | TETRAS Upper Limb Score by Video Review, Mean (SD) [9]: 9.80 (1.924) | TETRAS Upper Limb Score by Video Review, Median [9]: 9.50 | TETRAS Upper Limb Score by Video Review, Percentage Change from Baseline in Tremor Amplitude, Mean (SD) [9]: 5.17 (15.525) % | TETRAS Upper Limb Score by Video Review, Percentage Change from Baseline in Tremor Amplitude, Median [9]: 9.15% | TETRAS Upper Limb Score by Video Review, Percentage Change from Randomization in Tremor Amplitude, Mean (SD) [9]: 25.58 (31.214) % | TETRAS Upper Limb Score by Video Review, Percentage Change from Randomization in Tremor Amplitude, Median [9]: 38.10%
